Laboratory results taken from PubChem BioAssay AID1918999 (Molecular Pharmacology Branch, DTP, NCI, 2023).
Values joined by “and” are separate entries in the source; they are usually repeats but may differ in a detail not shown here. Equal values may be shown once.

Test system: 556581-035-R-J1-PDC complex spheroid growth
Assay: Anticancer human tumor 556581-035-R-J1-PDC patient-derived ovarian carcinoma cell line growth inhibition [AhR]
Conditions: for viability, T/C: stronger effect = lower value; active means viability on the fitted dose curve at most 10% of control; inactive means the rest
How it was run: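 Spheroids combined tumor cells with HUVEC endothelial cells and human MSCs as stroma. AhR antagonists were paired with standard or investigational drugs, each dosed in half-log steps down from near clinical Cmax, or from 10 microM where Cmax was unknown.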

[1] = curve of first compound, second compound 0.1 µM
[2] = curve of first compound, second compound 0.316 µM
[3] = curve of first compound, second compound 1 µM
[4] = curve of first compound, second compound 3.16 µM
[5] = curve of first compound, second compound 10 µM
[6] = second compound 0.1 µM, first compound 0.0316 µM
[7] = second compound 0.1 µM, first compound 0.1 µM
[8] = second compound 0.1 µM, first compound 0.316 µM
[9] = second compound 0.1 µM, first compound 1 µM
[10] = second compound 0.1 µM, first compound 3.16 µM
[11] = second compound 0.1 µM, first compound 10 µM
[12] = second compound 0.316 µM, first compound 0.0316 µM
[13] = second compound 0.316 µM, first compound 0.1 µM
[14] = second compound 0.316 µM, first compound 0.316 µM
[15] = second compound 0.316 µM, first compound 1 µM
[16] = second compound 0.316 µM, first compound 3.16 µM
[17] = second compound 0.316 µM, first compound 10 µM
[18] = second compound 1 µM, first compound 0.0316 µM
[19] = second compound 1 µM, first compound 0.1 µM
[20] = second compound 1 µM, first compound 0.316 µM
[21] = second compound 1 µM, first compound 1 µM
[22] = second compound 1 µM, first compound 3.16 µM
[23] = second compound 1 µM, first compound 10 µM
[24] = second compound 3.16 µM, first compound 0.0316 µM
[25] = second compound 3.16 µM, first compound 0.1 µM
[26] = second compound 3.16 µM, first compound 0.316 µM
[27] = second compound 3.16 µM, first compound 1 µM
[28] = second compound 3.16 µM, first compound 3.16 µM
[29] = second compound 3.16 µM, first compound 10 µM
[30] = second compound 10 µM, first compound 0.0316 µM
[31] = second compound 10 µM, first compound 0.1 µM
[32] = second compound 10 µM, first compound 0.316 µM
[33] = second compound 10 µM, first compound 1 µM
[34] = second compound 10 µM, first compound 3.16 µM
[35] = second compound 10 µM, first compound 10 µM
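Wherever viability, T/C is given: compound exposure lasted 7 days; 100% = DMSO vehicle control growth.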

COc1cccc2c1C(=O)c1c(O)c3c(c(O)c1C2=O)CC(O)(C(=O)CO)CC3OC1CC(N)C(O)C(C)O1 (stereo not drawn) + Cc1cncc(-c2nc(NCCc3c[nH]c4ccccc34)c3ncn(C(C)C)c3n2)c1
0.351 µM: IC50 [5]
0.382 µM: IC50 [1]
inactive: viability, T/C [6] 87% | viability, T/C [7] 89.8% | viability, T/C [8] 58.3% | viability, T/C [12] 84.8% | viability, T/C [13] 82.5% | viability, T/C [14] 58.3% | viability, T/C [18] 81.9% | viability, T/C [19] 73.8% | viability, T/C [20] 62.9% | viability, T/C [24] 77.7% | viability, T/C [25] 74.8% | viability, T/C [26] 54.4% | viability, T/C [30] 80.8% | viability, T/C [31] 68.8% | viability, T/C [32] 54.8%
0.403 µM: IC50 [3]
0.349 µM: IC50 [4]
0.38 µM: IC50 [2]
active: viability, T/C [9] 6.64% | viability, T/C [10] 0.94% | viability, T/C [11] 1.6% | viability, T/C [15] 6.48% | viability, T/C [16] 0.61% | viability, T/C [17] 2.51% | viability, T/C [21] 3.27% | viability, T/C [22] 0.86% | viability, T/C [23] 2.01% | viability, T/C [27] 2.38% | viability, T/C [28] 1.27% | viability, T/C [29] 3.59% | viability, T/C [33] 2.24% | viability, T/C [34] 1.87% | viability, T/C [35] 3.7%

CC1COCCN1c1cc(C2(S(C)(=N)=O)CC2)nc(-c2ccnc3[nH]ccc23)n1 (stereo not drawn) + Cc1ccccc1N=Nc1ccc(NC(=O)c2ccnn2C)c(C)c1
> 10 µM: IC50 [1] | IC50 [2] | IC50 [3] | IC50 [4] | IC50 [5]
inactive: viability, T/C [6] 100% | viability, T/C [7] 99.5% | viability, T/C [8] 96.6% | viability, T/C [9] 92.1% | viability, T/C [10] 78.4% | viability, T/C [11] 59% | viability, T/C [12] 98.8% | viability, T/C [13] 99.2% | viability, T/C [14] 96.7% | viability, T/C [15] 92% | viability, T/C [16] 80.1% | viability, T/C [17] 58.3% | viability, T/C [18] 100% | viability, T/C [19] 100% | viability, T/C [20] 98.6% | viability, T/C [21] 93.9% | viability, T/C [22] 78.4% | viability, T/C [23] 60% | viability, T/C [24] 95.1% | viability, T/C [25] 98.1% | viability, T/C [26] 95.4% | viability, T/C [27] 88% | viability, T/C [28] 73.9% | viability, T/C [29] 58.8% | viability, T/C [30] 96.1% | viability, T/C [31] 97.2% | viability, T/C [32] 93% | viability, T/C [33] 85.2% | viability, T/C [34] 74.5% | viability, T/C [35] 60.8%

COc1cc(Nc2ncc3c(n2)-c2ccc(Cl)cc2C(c2c(F)cccc2OC)=NC3)ccc1C(=O)O
inactive: viability, T/C (compound 0.0316 µM) 81.1% and 79.8% and 91.3% | viability, T/C (compound 0.1 µM) 75% and 75.9% and 76% | viability, T/C (compound 0.316 µM) 68.9% and 62.2% and 64.4% | viability, T/C (compound 1 µM) 79.5% and 64.8% and 63% | viability, T/C (compound 3.16 µM) 62.2% and 61.8% and 58.2% | viability, T/C (compound 10 µM) 54% and 52% and 52.1%
> 10 µM: IC50 (curve of compound)

COc1cccc2c1C(=O)c1c(O)c3c(c(O)c1C2=O)CC(O)(C(=O)CO)CC3OC1CC(N)C(O)C(C)O1 (stereo not drawn)
inactive: viability, T/C (compound 0.0316 µM) 90.7% and 86.7% and 84.5% | viability, T/C (compound 0.1 µM) 89% and 78.2% and 76.5% | viability, T/C (compound 0.316 µM) 58.8% and 57.2% and 55%
0.388 µM and 0.386 µM and 0.366 µM: IC50 (curve of compound)
9.14% and 19.1% and 19.5%: viability, T/C (compound 1 µM)
active: viability, T/C (compound 3.16 µM) 1.93% and 3.75% and 4.65% | viability, T/C (compound 10 µM) 3.8% and 2.01% and 3.67%

O=C(c1cc(Cc2n[nH]c(=O)c3ccccc23)ccc1F)N1CCN(C(=O)C2CC2)CC1 + CC(CO)NC(=O)c1cc(-c2ccc(Cl)cc2)nn(-c2cnn(C)c2)c1=O
inactive: viability, T/C [6] 93.7% | viability, T/C [7] 94.6% | viability, T/C [8] 93% | viability, T/C [9] 85.1% | viability, T/C [10] 83.7% | viability, T/C [11] 82.4% | viability, T/C [12] 91.9% | viability, T/C [13] 98% | viability, T/C [14] 93% | viability, T/C [15] 89.3% | viability, T/C [16] 81.4% | viability, T/C [17] 84.3% | viability, T/C [18] 93.9% | viability, T/C [19] 108% | viability, T/C [20] 95.2% | viability, T/C [21] 95% | viability, T/C [22] 90.1% | viability, T/C [23] 73.2% | viability, T/C [24] 90.2% | viability, T/C [25] 89.7% | viability, T/C [26] 94.2% | viability, T/C [27] 84% | viability, T/C [28] 81.4% | viability, T/C [29] 74.4% | viability, T/C [30] 106% | viability, T/C [31] 105% | viability, T/C [32] 85.2% | viability, T/C [33] 99.5% | viability, T/C [34] 79.1% | viability, T/C [35] 77.6%
> 10 µM: IC50 [1] | IC50 [2] | IC50 [3] | IC50 [4] | IC50 [5]

CCN(c1cc(-c2ccc(CN3CCOCC3)cc2)cc(C(=O)NCc2c(C)cc(C)[nH]c2=O)c1C)C1CCOCC1 + Cc1cncc(-c2nc(NCCc3c[nH]c4ccccc34)c3ncn(C(C)C)c3n2)c1
2.23 µM: IC50 [5]
> 3 µM: IC50 [1] | IC50 [2] | IC50 [3] | IC50 [4]
inactive: viability, T/C (second compound 0.1 µM, first compound 0.00949 µM) 97.7% | viability, T/C (second compound 0.1 µM, first compound 0.03 µM) 109% | viability, T/C (second compound 0.1 µM, first compound 0.0949 µM) 96.2% | viability, T/C (second compound 0.1 µM, first compound 0.3 µM) 102% | viability, T/C (second compound 0.1 µM, first compound 0.949 µM) 102% | viability, T/C (second compound 0.1 µM, first compound 3 µM) 100% | viability, T/C (second compound 0.316 µM, first compound 0.00949 µM) 98% | viability, T/C (second compound 0.316 µM, first compound 0.03 µM) 96.2% | viability, T/C (second compound 0.316 µM, first compound 0.0949 µM) 102% | viability, T/C (second compound 0.316 µM, first compound 0.3 µM) 101% | viability, T/C (second compound 0.316 µM, first compound 0.949 µM) 99.5% | viability, T/C (second compound 0.316 µM, first compound 3 µM) 104% | viability, T/C (second compound 1 µM, first compound 0.00949 µM) 104% | viability, T/C (second compound 1 µM, first compound 0.03 µM) 118% | viability, T/C (second compound 1 µM, first compound 0.0949 µM) 112% | viability, T/C (second compound 1 µM, first compound 0.3 µM) 94.9% | viability, T/C (second compound 1 µM, first compound 0.949 µM) 88.2% | viability, T/C (second compound 1 µM, first compound 3 µM) 92.3% | viability, T/C (second compound 3.16 µM, first compound 0.00949 µM) 86.4% | viability, T/C (second compound 3.16 µM, first compound 0.03 µM) 99.3% | viability, T/C (second compound 3.16 µM, first compound 0.0949 µM) 101% | viability, T/C (second compound 3.16 µM, first compound 0.3 µM) 88.6% | viability, T/C (second compound 3.16 µM, first compound 0.949 µM) 92.1% | viability, T/C (second compound 3.16 µM, first compound 3 µM) 92.2% | viability, T/C (second compound 10 µM, first compound 0.00949 µM) 84.4% | viability, T/C (second compound 10 µM, first compound 0.03 µM) 83.8% | viability, T/C (second compound 10 µM, first compound 0.0949 µM) 83.3% | viability, T/C (second compound 10 µM, first compound 0.3 µM) 69.6% | viability, T/C (second compound 10 µM, first compound 0.949 µM) 66.5% | viability, T/C (second compound 10 µM, first compound 3 µM) 44.3%

NS(=O)(=O)OCC1CC(n2ccc3c(NC4CCc5ccccc54)ncnc32)CC1O (stereo not drawn)
> 10 µM: IC50 (curve of compound)
inactive: viability, T/C (compound 0.0316 µM) 100% and 99.4% and 89% | viability, T/C (compound 0.1 µM) 109% and 118% and 98.8% | viability, T/C (compound 0.316 µM) 100% and 104% and 111% | viability, T/C (compound 1 µM) 90% and 108% and 103% | viability, T/C (compound 3.16 µM) 88% and 106% and 113% | viability, T/C (compound 10 µM) 73.4% and 86.2% and 81.5%

Nc1ncn(C2CC(O)C(CO)S2)c(=O)n1 (stereo not drawn)
> 0.3 µM: IC50 (curve of compound)
inactive: viability, T/C (compound 0.000949 µM) 92% and 102% and 111% | viability, T/C (compound 0.003 µM) 109% and 115% and 113% | viability, T/C (compound 0.00949 µM) 102% and 106% and 113% | viability, T/C (compound 0.03 µM) 88% and 106% and 100% | viability, T/C (compound 0.0949 µM) 82.2% and 87.7% and 100% | viability, T/C (compound 0.3 µM) 67.3% and 67.2% and 64.9%

Nc1ccccc1NC(=O)c1ccc(CNC(=O)OCc2cccnc2)cc1 + CC(CO)NC(=O)c1cc(-c2ccc(Cl)cc2)nn(-c2cnn(C)c2)c1=O
1.44 µM: IC50 [4]
1.34 µM: IC50 [1]
1.56 µM: IC50 [5]
1.59 µM: IC50 [2]
inactive: viability, T/C [6] 96.9% | viability, T/C [7] 102% | viability, T/C [8] 78% | viability, T/C [9] 53.2% | viability, T/C [10] 36.9% | viability, T/C [11] 17.5% | viability, T/C [12] 107% | viability, T/C [13] 91% | viability, T/C [14] 87.1% | viability, T/C [15] 58.7% | viability, T/C [16] 34.9% | viability, T/C [17] 15.4% | viability, T/C [18] 118% | viability, T/C [19] 100% | viability, T/C [20] 77.3% | viability, T/C [21] 60.8% | viability, T/C [22] 38.6% | viability, T/C [23] 17.8% | viability, T/C [24] 105% | viability, T/C [25] 102% | viability, T/C [26] 84.8% | viability, T/C [27] 58% | viability, T/C [28] 33.2% | viability, T/C [29] 20.6% | viability, T/C [30] 106% | viability, T/C [31] 103% | viability, T/C [32] 88.6% | viability, T/C [33] 62.8% | viability, T/C [34] 30.4% | viability, T/C [35] 12.6%
1.66 µM: IC50 [3]
